The values that follow come from article PMC8058733, “A pain killer without analgesic tolerance designed by co-targeting PSD-95-nNOS interaction and α2-containning GABAARs” (Theranostics, 2021).

Entries after “also recorded” stand apart in the source; their conditions may differ.

One data set deals with T1, PSD-95-nNOS complex (Rattus norvegicus, UniProt P29476).
T1 construct: dorsal spinal cord tissues (L4 and L5) were lysed in 400 μl RIPA; from tissue; host or cells: rat dorsal spinal cord (L4 and L5), SNL model
T1 sequence (P29476 whole entry, one chain of several): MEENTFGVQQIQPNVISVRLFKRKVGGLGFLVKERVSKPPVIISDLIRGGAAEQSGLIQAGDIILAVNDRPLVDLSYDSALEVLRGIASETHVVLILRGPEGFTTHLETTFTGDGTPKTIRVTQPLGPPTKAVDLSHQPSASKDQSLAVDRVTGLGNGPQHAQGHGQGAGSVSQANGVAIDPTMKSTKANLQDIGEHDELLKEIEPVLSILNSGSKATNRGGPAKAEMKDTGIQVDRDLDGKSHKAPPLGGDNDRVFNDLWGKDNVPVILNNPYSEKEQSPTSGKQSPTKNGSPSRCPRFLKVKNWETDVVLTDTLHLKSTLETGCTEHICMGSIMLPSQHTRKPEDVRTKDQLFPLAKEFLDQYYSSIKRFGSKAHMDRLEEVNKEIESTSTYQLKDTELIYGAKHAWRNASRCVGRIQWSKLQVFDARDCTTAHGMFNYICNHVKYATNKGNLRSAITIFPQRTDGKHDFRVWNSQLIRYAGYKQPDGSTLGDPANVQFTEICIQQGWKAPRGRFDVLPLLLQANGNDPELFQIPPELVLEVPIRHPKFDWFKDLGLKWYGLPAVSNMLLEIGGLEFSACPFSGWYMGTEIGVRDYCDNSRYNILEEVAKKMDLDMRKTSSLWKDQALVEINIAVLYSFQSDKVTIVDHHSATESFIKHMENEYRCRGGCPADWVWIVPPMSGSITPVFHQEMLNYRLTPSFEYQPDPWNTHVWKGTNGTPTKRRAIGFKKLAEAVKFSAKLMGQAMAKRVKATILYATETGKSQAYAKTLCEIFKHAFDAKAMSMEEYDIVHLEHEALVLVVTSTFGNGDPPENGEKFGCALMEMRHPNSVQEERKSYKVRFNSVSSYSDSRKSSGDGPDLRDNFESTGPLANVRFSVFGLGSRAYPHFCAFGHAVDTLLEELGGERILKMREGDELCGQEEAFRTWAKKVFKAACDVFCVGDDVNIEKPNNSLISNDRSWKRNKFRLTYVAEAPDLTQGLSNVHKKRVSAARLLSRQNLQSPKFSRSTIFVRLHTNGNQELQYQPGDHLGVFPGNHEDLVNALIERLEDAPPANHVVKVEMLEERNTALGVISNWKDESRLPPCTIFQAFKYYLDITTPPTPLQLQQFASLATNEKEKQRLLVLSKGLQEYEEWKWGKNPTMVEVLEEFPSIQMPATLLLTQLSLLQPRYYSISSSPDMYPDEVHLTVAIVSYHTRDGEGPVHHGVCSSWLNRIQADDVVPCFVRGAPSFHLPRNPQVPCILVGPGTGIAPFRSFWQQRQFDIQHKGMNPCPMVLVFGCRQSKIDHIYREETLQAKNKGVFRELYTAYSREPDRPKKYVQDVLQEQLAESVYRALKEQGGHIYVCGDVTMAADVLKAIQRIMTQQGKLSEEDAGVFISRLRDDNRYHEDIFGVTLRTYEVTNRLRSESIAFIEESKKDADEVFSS
The data set can be described thus: Co-IP of PSD-95-nNOS complex levels in the spinal dorsal horn after SNL. It is filed as in vivo. To be noted: SNL rats treated by ZL006-05.

Data set [1] deals with SNL-induced mechanical hyperalgesia. The data set can be described thus: SNL-induced mechanical hyperalgesia, paw withdrawal threshold. It is filed as in vivo, rat. To be noted: SNL rats, ZL006-05 60 mg/kg/d, i.g., ×11 d.
The target of a further data set is T2, α2β3γ2 GABAARs (Homo sapiens, UniProt P18507+P28472+P47869).
T2 construct: Shanghai Genechem Co.,Ltd (γ2 plasmid); host or cells: HEK293
T2 sequence (P47869 29-451): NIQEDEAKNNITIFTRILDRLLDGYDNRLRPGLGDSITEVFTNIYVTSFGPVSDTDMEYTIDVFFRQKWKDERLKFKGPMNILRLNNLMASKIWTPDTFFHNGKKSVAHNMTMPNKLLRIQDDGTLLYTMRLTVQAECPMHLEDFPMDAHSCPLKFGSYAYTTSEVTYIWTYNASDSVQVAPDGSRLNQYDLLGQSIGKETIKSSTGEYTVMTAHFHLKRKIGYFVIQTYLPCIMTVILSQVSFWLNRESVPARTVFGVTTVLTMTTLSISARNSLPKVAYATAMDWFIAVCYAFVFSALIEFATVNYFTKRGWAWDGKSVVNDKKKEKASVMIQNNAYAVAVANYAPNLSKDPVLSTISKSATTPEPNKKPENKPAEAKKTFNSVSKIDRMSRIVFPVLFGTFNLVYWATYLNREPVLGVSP
T2 sequence (P28472 26-473): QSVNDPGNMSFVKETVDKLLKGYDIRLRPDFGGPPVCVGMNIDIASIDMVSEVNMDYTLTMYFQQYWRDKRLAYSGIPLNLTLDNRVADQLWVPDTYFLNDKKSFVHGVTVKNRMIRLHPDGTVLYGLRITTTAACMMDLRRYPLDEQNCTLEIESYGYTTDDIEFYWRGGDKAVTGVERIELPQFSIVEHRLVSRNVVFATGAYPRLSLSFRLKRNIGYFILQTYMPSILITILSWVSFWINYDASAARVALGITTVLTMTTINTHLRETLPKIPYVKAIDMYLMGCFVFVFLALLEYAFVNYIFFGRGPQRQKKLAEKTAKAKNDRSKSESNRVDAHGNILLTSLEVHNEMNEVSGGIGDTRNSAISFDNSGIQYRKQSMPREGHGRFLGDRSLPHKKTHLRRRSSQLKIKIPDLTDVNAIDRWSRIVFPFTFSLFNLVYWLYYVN
T2 sequence (P18507 40-475): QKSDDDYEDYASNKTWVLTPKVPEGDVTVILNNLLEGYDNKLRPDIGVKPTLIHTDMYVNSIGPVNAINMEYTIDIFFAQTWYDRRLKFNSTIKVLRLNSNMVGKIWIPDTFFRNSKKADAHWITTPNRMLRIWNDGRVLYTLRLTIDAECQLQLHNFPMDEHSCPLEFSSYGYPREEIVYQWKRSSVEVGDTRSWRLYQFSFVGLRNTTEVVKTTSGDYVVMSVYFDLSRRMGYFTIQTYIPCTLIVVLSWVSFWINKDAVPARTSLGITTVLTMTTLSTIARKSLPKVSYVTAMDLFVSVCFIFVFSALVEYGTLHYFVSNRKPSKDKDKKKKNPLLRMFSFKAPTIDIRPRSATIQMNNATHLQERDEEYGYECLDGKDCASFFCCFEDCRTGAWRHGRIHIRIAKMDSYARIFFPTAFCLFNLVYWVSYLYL
Kind of data set: Potentiation of GABA-evoked currents, whole-cell patch-clamp in HEK293 cells transiently expressing recombinant GABAARs. It counts as cell-based. To be noted: α2β3γ2. How it is done:
(§1) The affinities of drugs for α1, α2, α3 and α5 subunits were studied in the HEK293 cells (from FuHeng Biology, Shanghai, China) transiently expressing recombinant GABAARs (α1β2γ2, α2β3γ2, α3β3γ2 and α5β2γ2) as described previously. Briefly, the HEK293 cells were cultured in MEM medium supplemented with 10% FBS (fetal bovine serum, Gibico), 1% L-glutamine (Gibco) and 1% mycillin (Gibco). Before transfection, the cells were subcultured onto a 3.5cm dish at the ratio of 1:2. Then, the plasmids of α1/α2/α3/α5 (Origene), β2/β3 (Origene) and γ2 (Shanghai Genechem Co.,Ltd ) (5μg total DNA, ratio 1:1:2) were transfected using Fugene®HD transfection reagent (Promega). The γ2 subunit contained GFP from IRES (internal ribosomal entry site) and was used as a marker of the successful transfection. Cells were used for electrophysiology recording 18-36 hours after transfection.
(§2) Electrophysiology recordings from HEK293 cells were performed as described previously. Briefly, whole-cell patch-clamp recordings of GABA-evoked currents were made at 30 °C with the holding potential of -60 mV. The internal solution (solution in recording electrodes) contained (in mM): 120 CsCl, 10 EGTA, 10 HEPES, 4 MgCl2, 0.5 GTP, 2 ATP and pH was adjusted to 7.4 with CsOH and the external solution contained (in mM): 150 NaCl, 10 KCl, 2 CaCl2, 1 MgCl, 10 HEPES, 10 Glucose and pH was adjusted to 7.4 with NaOH. ACSF was bubbled continuously with carbogen (95%O2 and 5%CO2). For the recording of GABA-evoked currents, the slides were transferred to a recording chamber, which was perfused with ACSF at a rate of 4 ml/min. The cells were viewed under upright microscopy (Olympus), and GFP-positive cells were selected to record the currents. The interval time between each different dose of GABA was controlled, 3 to 5 minutes to avoid the desensitization of GABAARs.
(In patch-clamp work, channel activity is measured electrically.)

The target in the next data set is T3, α3β3γ2 GABAARs (Homo sapiens, UniProt P18507+P28472+P34903).
T3 construct: Shanghai Genechem Co.,Ltd (γ2 plasmid); host or cells: HEK293
T3 sequence (P34903 29-492): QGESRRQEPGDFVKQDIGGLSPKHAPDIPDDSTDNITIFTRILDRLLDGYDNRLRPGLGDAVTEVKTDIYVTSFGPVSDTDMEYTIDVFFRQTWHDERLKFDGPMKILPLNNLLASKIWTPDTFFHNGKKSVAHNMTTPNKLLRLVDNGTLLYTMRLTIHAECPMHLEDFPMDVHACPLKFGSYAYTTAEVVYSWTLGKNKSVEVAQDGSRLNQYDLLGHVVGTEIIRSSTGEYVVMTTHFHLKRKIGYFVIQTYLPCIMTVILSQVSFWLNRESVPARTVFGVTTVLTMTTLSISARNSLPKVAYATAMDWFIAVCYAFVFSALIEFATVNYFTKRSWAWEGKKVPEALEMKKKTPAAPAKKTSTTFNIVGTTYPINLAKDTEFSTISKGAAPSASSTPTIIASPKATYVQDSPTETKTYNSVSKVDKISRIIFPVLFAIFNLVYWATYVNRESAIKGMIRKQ
T3 sequence (P28472 26-473): as the sequence (P28472 26-473) above
T3 sequence (P18507 40-475): as the sequence (P18507 40-475) above
The description is as above. Particulars: α3β3γ2. It counts as cell-based. The protocol: as §1, §2

The next data set concerns the target T4, α1β2γ2 GABAARs (Homo sapiens, UniProt P14867+P18507+P47870).
T4 construct: Shanghai Genechem Co.,Ltd (γ2 plasmid); host or cells: HEK293
The description is as above. It is filed as cell-based. To be noted: α1β2γ2. The protocol:
as §1, §2

A short description of data set [2]: Identification of metabolites of ZL006-05 in plasma (UPLC-UV/Q-TOF MS). It counts as in vivo. To be noted: rats. The protocol:
ZL006-05 was given to rats by intravenous injection (i.v., 6.0 mg/kg) and oral administration (i.g., 90 mg/kg) respectively. Plasma samples were collected at pre-dose and 0.25, 0.5, 2 and 4 h for i.v. and 0.5, 1, 2 and 4 h for i.g after a single dose administration. Pre-dose plasma samples were used as control blank. After vortex and centrifugation, supernatant was removed and dried out by nitrogen blowing instrument at 40 °C and then re-dissolved with 100 μL water/ACN (50/50, v/v). The resulting samples were injected and analyzed by UPLC-UV/Q-TOF MS. Metabolites were separated with ACQUITY UPLC HSS T3 C18 column (2.1 × 100 mm I.D., 1.7 µm I.D.) with column temperature at 45 °C and flow rate at 0.4 mL/min, detected by UV (200-600 nm). Masslynx V4.1 of Waters was used for data acquiring, MetaboLynx XS with Masslynx V4.1 was used for data analysis.
Supplementary Figure 3. Proposed metabolic pathways of ZL006-05 in rats. […]
of ZL006-05, including M2-2 (glucuronide conjunction), M3-2 (Mono-oxidation & […]
parent drug were found in plasma after oral administration of ZL006-05, including M1 (Oxidation by de-H2), M2-1 and M2-2 (glucuronide conjunction), M3-1 and M3-2 (Mono-oxidation & glucuronide conjunction). Based on the chromatogram of UPLC- […]
oral dosing, the proposed metabolic pathways of ZL006-05 in blood were summarized. i.v.: intravenous injection; i.g.: oral administration.
(1 picture or pasted object on this page, not shown here)

T4 sequence (P14867 28-456): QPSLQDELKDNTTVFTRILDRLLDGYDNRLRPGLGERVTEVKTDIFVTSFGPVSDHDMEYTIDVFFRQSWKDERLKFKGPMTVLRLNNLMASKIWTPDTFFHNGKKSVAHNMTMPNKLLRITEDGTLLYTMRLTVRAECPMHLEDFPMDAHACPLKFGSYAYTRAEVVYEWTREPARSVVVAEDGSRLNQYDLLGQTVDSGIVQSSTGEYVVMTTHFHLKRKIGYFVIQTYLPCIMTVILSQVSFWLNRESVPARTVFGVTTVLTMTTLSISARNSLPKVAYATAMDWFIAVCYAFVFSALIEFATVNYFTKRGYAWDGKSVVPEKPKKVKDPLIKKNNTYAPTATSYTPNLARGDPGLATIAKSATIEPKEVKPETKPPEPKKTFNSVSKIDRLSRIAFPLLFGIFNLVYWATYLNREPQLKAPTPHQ
T4 sequence (P47870 25-512 limits assumed): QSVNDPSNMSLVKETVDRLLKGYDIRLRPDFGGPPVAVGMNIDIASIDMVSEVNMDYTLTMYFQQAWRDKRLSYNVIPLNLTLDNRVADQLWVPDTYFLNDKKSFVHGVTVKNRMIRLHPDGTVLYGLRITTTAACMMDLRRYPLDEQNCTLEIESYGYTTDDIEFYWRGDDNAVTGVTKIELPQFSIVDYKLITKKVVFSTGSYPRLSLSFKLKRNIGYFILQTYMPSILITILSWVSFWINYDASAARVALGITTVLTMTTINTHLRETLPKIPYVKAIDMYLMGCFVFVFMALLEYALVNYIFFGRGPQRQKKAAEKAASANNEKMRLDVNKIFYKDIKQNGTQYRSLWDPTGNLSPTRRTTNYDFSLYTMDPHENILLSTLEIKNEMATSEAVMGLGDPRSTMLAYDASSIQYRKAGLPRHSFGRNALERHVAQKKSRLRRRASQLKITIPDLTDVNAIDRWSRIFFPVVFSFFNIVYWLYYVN
T4 sequence (P18507 40-475): as the sequence (P18507 40-475) above

As for `CC1(C)C2CCC1(C)C(OC(=O)c1ccc(NCc3cc(Cl)cc(Cl)c3O)cc1O)C2` (stereo not drawn) [ZL006-05], on PSD-95-nNOS complex, the “PSD-95-nNOS complex level in the SDH” value is given as “abolished the SNL-induced increase in PSD-95-nNOS complex in the SDH”. In addition, the “Analgesic tolerance, mechanical hyperalgesia” value in data set [1] was “did not produce analgesic tolerance”. Moreover, at α2β3γ2 GABAARs, the “Effect on α2-containing GABAAR (in words)” value was “very high affinity to α2-containing GABAAR; also recorded: very high efficacy and potency on α2GABAARs”. Further, the “Effect on α3GABAAR (in words)” value at α3β3γ2 GABAARs was “low efficacy on α3GABAAR”. In addition, on α1β2γ2 GABAARs, the “Effect on GABA-evoked currents of α1-containing GABAAR (in words)” value is “does not potentiate α1GABAAR”. The “Metabolites found in plasma” value in data set [2] (after intravenous injection: M2-2, M3-2, M4) was “Three metabolites except parent drug”; in data set [2] (after oral administration: M1, M2-1, M2-2, M3-1, M3-2), “five metabolites”. Also, the “Main metabolite in plasma (UPLC-UV)” value was “parent drug (M0)” in data set [2] (after iv dosing, 6.0 mg/kg); “parent drug (M0) and glucuronide conjunction (M2-2)” in data set [2] (after oral dosing, 90 mg/kg).
